# Measured values taken from PMC12858582, “A coral-derived neuropeptide suppresses pentylenetetrazol (PTZ)-induced epileptic seizures and improves recognition memory deficits by modulating NPY-Y1R” (Archives of Toxicology, 2025).
# Where no end group is shown, it is not given here.
# B1: TpNPY (peptide)
# chain: VGGPPKRPESFKSMAELNAYLSDLAGYYTVIGRPRF-NH2
# How the values were obtained:
# C57BL/6 J mice [1] = test: PTZ-kindling-induced epileptic mice model; type: in vivo
# Procedure: The PTZ-kindling-induced epileptic mice model was monitored as previously described (Singh et al. [2021]). PTZ (30 mg/kg, subconvulsive dose) was dissolved in saline and administered via intraperitoneal injection. TpNPY was dissolved in saline and delivered through daily intravenous injection of increasing concentrations (0.25 mg/kg, 0.5 mg/kg and 1 mg/kg) 30 min before PTZ injections for 14 consecutive days. Randomized grouping was used to divide C57BL/6 mice into 7 groups with 10 mice in each group. Then, behavioral observation was carried out at the same time, until the seizure of mice was kindled. The PTZ-only group was not exposed to TpNPY, and the control group was only given saline.
# HT22 cells = test: HT22 cell viability (MTT assay); type: cell-based, mouse; details: for cell viability: 24 h
# Procedure: The HT22 cell line was obtained from the ATCC (Manassas, VA, USA) and cultured in DMEM medium with an additional 10% fetal bovine serum (Gibco, US origin), 1% penicillin (100 U/mL) and streptomycin 100 (µg/mL) in a humidified 5% CO2 atmosphere at 37 °C. Cell viability was evaluated by measuring the activity of mitochondrial dehydrogenases with 3-(4,5-dimethyl-2-thiazolyl) 2,5 diphenyl-2H-tetrazolium bromide (MTT) assay (Sigma-Aldrich, USA). Briefly, HT22 cells were seeded in 96-well plates at a density of 8 × 10^3 cells per well. After various drug incubation, cells were incubated in 0.5 mg/mL MTT solution for 4 h at 37 °C. The supernatant medium was then discarded, and 100 µL of DMSO per well was added to dissolve the violet-formazan crystals. The absorbance at 570 nm wavelength was then tested by SpectraMax M5 (Wallac, The Netherlands). Under the same cell culture conditions as the cell viability assay, cytotoxicity was also evaluated via LDH release using an LDH assay kit (Beyotime, China). After different treatments, the supernatant of the cell culture medium was collected and tested according to the manufacturer’s protocol. The absorbance at 490 nm wavelength of supernatant was recorded by SpectraMax M5 (Wallac, The Netherlands).
# zebrafish larvae = test: Zebrafish larvae survival/mortality; type: in vivo; details: 24 h exposure, 6-dpf AB wild-type larvae
# Procedure: The 6-day post-fertilization (6-dpf) AB wild-type zebrafish were treated with various concentrations of TpNPY for 24 h in zebrafish-specific E3 culture medium. The mortality of zebrafish was calculated based on the observation of their heartbeat. To trigger seizures, zebrafish larvae were subjected to zebrafish culture medium containing 10 mM PTZ (Sigma-Aldrich, purity ≥ 99%) in 96-well plates. Their locomotor behaviors were recorded using a digital video tracking system (ViewPoint Behavior Technology, France).
# C57BL/6 J mice [2] = test: Morris water maze (MWM) test; type: in vivo; details: MWM test stage, n = 6
# Procedure: The Morris Water Maze (MWM) test assessed spatial learning and memory in mice (Bromley-Brits et al. [2011]). A circular pool (opaque with milk powder) was divided into four quadrants, with a hidden platform submerged in the third quadrant. Eight-week-old male C57BL/6 J mice were trained over five days (4 trials/day) to locate the platform, guided by visual cues. Escape latency (max 60 s) and platform stay time (30 s) were recorded. A probe trial (platform removed) was conducted 24 h post-training, recording time to the platform site, crossings, speed, and distance via a video camera connected to the ANY-maze Video Tracking System.
# [3] = target: T1, NPY-Y1 receptor (NPY-Y1R) (Homo sapiens, UniProt P25929); test: SPR
# T1 chain: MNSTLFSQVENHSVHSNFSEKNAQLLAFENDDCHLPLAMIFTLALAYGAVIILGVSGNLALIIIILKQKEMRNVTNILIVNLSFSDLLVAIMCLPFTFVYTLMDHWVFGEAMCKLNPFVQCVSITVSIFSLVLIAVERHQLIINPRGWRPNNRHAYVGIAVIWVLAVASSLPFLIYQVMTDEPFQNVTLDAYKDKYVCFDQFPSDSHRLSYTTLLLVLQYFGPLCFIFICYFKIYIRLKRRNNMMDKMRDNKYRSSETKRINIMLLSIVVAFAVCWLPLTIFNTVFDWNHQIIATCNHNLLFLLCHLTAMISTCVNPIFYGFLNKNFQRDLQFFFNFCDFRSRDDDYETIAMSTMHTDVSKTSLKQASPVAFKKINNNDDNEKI
molecule,measurement,setting,value
"C1CCc2nnnn2CC1 [PTZ, Pentylenetetrazole, reference compound]",seizure score,"C57BL/6 J mice [1]; PTZ-treated group, PTZ 30 mg/kg i.p., no TpNPY, after 15 injections, mean ± SEM, SEM",4.91 ± 0.41
N[C@@H](CCC(=O)O)C(=O)O [glutamate],cell viability,HT22 cells; 10 mM glutamate,78.22%
same,cell viability,HT22 cells; 15 mM glutamate,64.78%
same,cell viability,HT22 cells; 20 mM glutamate,40.82%
VGGPPKRPESFKSMAELNAYLSDLAGYYTVIGRPRF-NH2 [TpNPY],mortality rate of zebrafish larvae,zebrafish larvae; 40 μM,approximately 50%
same,survival rate of zebrafish larvae,zebrafish larvae; 6-25 μM,did not lead to any substantial changes in the survival rate
same,"behavior of mice, TpNPY alone",C57BL/6 J mice [1]; TpNPY without PTZ,no obvious influence on the behavior of mice
same,swimming speed,C57BL/6 J mice [2],without affecting swimming speed
same,cell viability (cytotoxicity of TpNPY),"HT22 cells; 1.56 to 50 μM, 24 h incubation",did not elicit any significant changes in cell viability
B1,Kd,[3],1980 nM
